The subject of assay [1] is B16BI6 tumor. Kind of assay: B16BI6 melanoma model, tumor growth. Format: in vivo, mouse. The note with it: Example 5, alone or combined with birinapant. The text has this:
FIG. 2A is a graph showing the change in B16BI6 tumor size in B16 mice treated with PBS, CD8-targeted chimeric protein (CD8-Actaferon) alone, BcII10 targeted mutated murine TNF (Y114L) alone, or CD8-targeted chimeric protein (CD8-Actaferon) and BcII10 targeted mutated murine TNF (Y114L). FIG. 2B is a graph showing the change in B16BI6 tumor size in B16 mice treated with PBS, CD8-targeted chimeric protein (CD8-Actaferon) alone, CD13 targeted mutated murine TNF (Y114L) alone, or CD8-targeted chimeric protein (CD8-Actaferon) and CD13 targeted mutated murine TNF (Y114L). […] Tumor growth is shown as mean TSI+SEM (n=6 per group). The line under the graph represents the treatment period. […] Error bars are SEM. ***, p<0.001 by one-way ANOVA with Bonferroni's multiple comparison test. […]
FIG. 7A: Toxicity of wt sc mTNF and mutant Y86F after injection (T) in naïve C56BU6 mice. […] FIG. 7B: Plasma IL-6 concentrations measured via ELISA. […]
FIG. 8A and 8B: B16BI6 tumor growth after daily p.1. treatment with 7 μg mTNF, 30 μg hTNF alone or in combination with 10000 IU mIFN-γ in wt C57BL/6 mice (a) or homozygous Flk1 dnIFN-γR transgenic mice. […] FIG. 8C: IL-8 concentration in HUVEC supernatant after 24 h stimulation with the indicated concentration of sc hTNF mutant Y87F (Y87F), hCD13-AFR or wt hTNF, alone or in combination with 200 ng/ml hIFN-γ, measured via ELISA. […]

Assay [2] relates to HUVEC. Put plainly: IL-8 secretion by HUVECs (ELISA of supernatant). The assay is classed as cell-based, human. The note with it: 24 h stimulation, 200 ng/ml hIFN-γ where used. How it is done:
FIG. 8A and 8B: B16BI6 tumor growth after daily p.1. treatment with 7 μg mTNF, 30 μg hTNF alone or in combination with 10000 IU mIFN-γ in wt C57BL/6 mice (a) or homozygous Flk1 dnIFN-γR transgenic mice. The line under the graph represents the treatment period. Tumor growth is depicted as mean TSI, error bars are SEM (n=5 per group). FIG. 8C: IL-8 concentration in HUVEC supernatant after 24 h stimulation with the indicated concentration of sc hTNF mutant Y87F (Y87F), hCD13-AFR or wt hTNF, alone or in combination with 200 ng/ml hIFN-γ, measured via ELISA. Error bars are SEM. ns, non-significant; p<0.01; ***, p<0.001 by one-way ANOVA with Bonferroni's multiple comparison test. FIG. 8D: Schematic representation of AFN-II, consisting of a VHH fused via a 20×GGS linker to an engineered IFN-γ (e-IFN-γ) variant and N-terminal affinity tag. FIG. 8E: Viability of B16BI6 parental or mCD20-expressing cells after 72 h stimulation with wt mIFN-γ or de18 mutant fused to a BcII10 or mCD20 VHH, in the presence of 60 ng/ml mTNF. Cell viability was measured via an ATP luminescence assay. Each point is the mean of three replicates and error bars are SEM.
It was also tested whether IFN-γ could sensitize HUVECs to TNF, using either wtTNF or hCD13-AFR.
On the technique in general: ELISA stands for enzyme-linked immunosorbent assay.

Turning to `CC[C@H](NC(=O)[C@H](C)NC)C(=O)N1C[C@@H](O)C[C@H]1Cc1c(-c2[nH]c3cc(F)ccc3c2C[C@@H]2C[C@H](O)CN2C(=O)[C@H](CC)NC(=O)[C@H](C)NC)[nH]c2cc(F)ccc12` [birinapant], the “Tumor growth (FIG. 5A)” value in assay [1] is on record as “very little effect on tumor growth”.

B1: IFN-γ: human IFN-γ used on HUVECs, 200 ng/ml (protein)
chain: QDPYVKEAENLKKYFNAGHSDVADNGTLFLGILKNWKEESDRKIMQSQIVSFYFKLFKNFKDDQSIQKSVETIKEDMNVKFFNSNKKKRDDFEKLTNYSVTDLNVQRKAIHELIQVMAELSPAAKTGKRKRSQMLFRGRRASQ
For B1, in assay [2], the “IL-8 secretion by HUVECs” value is on record as “no effect on IL-8 secretion”.

Source of the values: patent US12544426B2, “Combination therapy with CD13-targeted chimeric proteins or chimeric protein complexes” (Orionis Biosciences, Inc., priority 2019, dated 2026).
